Data from patent publication US12486254B2, “Uracil derivatives for stimulating read-through of premature termination codons” (Southern Research Institute, priority 2022, dated 2025).

System: W134X-CF#14 FRT
Test: Read-through of a premature termination codon, W134X-CF#14 FRT data, with G418
Type: cell-based
Settings: in presence of G418
Experimental: The compounds shown in Table 1 were evaluated for their ability to stimulate read-through of a premature termination codon, and their respective activities are shown in Tables 2 and 3 below.

| SMILES | EC50 [µM] |
| --- | --- |
| CCn1c(=O)c(C(=O)CNC2CCCCC2)c(N)n(Cc2ccccc2)c1=O [1.13] | 174 |
| CC(C)N(CC(N)=O)CC(=O)c1c(N)n(Cc2ccccc2)c(=O)n(C)c1=O [1.21] | 43.2 |
| CCn1c(=O)c(C(=O)CN(CCNC(=O)OC(C)(C)C)C(C)C)c(N)n(Cc2ccccc2)c1=O [1.26] | 155 |
| CCn1c(=O)c(C(=O)CN(CC(N)=O)C(C)(C)C)c(N)n(Cc2ccccc2)c1=O [1.32] | 72.3 |
| CCn1c(=O)c(C(=O)CN2CCC[C@@H]2C(N)=O)c(N)n(Cc2ccccc2)c1=O [1.34] | 53 |
| CCN(CC(=O)c1c(N)n(Cc2ccccc2)c(=O)n(CC)c1=O)CC(=O)c1c(N)n(Cc2ccccc2)c(=O)n(CC)c1=O [1.37] | 12.9 |
| CCn1c(=O)c(C(=O)CN(C)CC(=O)c2c(N)n(Cc3ccccc3)c(=O)n(CC)c2=O)c(N)n(Cc2ccccc2)c1=O [1.38] | 11.9 |
| CCn1c(=O)c(C(=O)CN(C)CC(N)=O)c(N)n(Cc2ccccc2)c1=O [1.41] | 157 |
| Cn1c(=O)c(C(=O)CN2CCN(c3ccccc3F)CC2)c(N)n(Cc2ccccc2)c1=O [1.43] | 49.3 |
| CC(C)n1c(=O)c(C(=O)CN2CCCCC2C(N)=O)c(N)n(Cc2ccccc2)c1=O (centres unmarked) [1.44] | 22.7 |
| NC(=O)C1CCCCN1CC(=O)c1c(N)n(Cc2ccccc2)c(=O)n(C2CC2)c1=O (centres unmarked) [1.45] | ≥ 100 |
| NC(=O)C1CCCCN1CC(=O)c1c(N)n(C2CC2)c(=O)n(Cc2ccccc2)c1=O (centres unmarked) [1.46] | ≥ 100 |
| CCn1c(=O)c(C(=O)CN2CCCC[C@H]2C(N)=O)c(N)n(Cc2ccccc2)c1=O [1.49] | 59.4 |
| CCn1c(=O)c(C(=O)CN2CCN(C(=O)OC(C)(C)C)CC2C(N)=O)c(N)n(Cc2ccccc2)c1=O (centres unmarked) [1.52] | ≥ 100 |
| CC1Cc2ccccc2N1CC(=O)c1c(N)n(Cc2ccccc2)c(=O)n(C)c1=O (centres unmarked) [1.61] | 32.3 |
| CCn1c(=O)c(C(=O)CN2CCCC2c2cccn2C)c(N)n(Cc2ccccc2)c1=O (centres unmarked) [1.63] | 79.9 |
| CCn1c(=O)c(C(=O)CN2CCCCC2C(=O)OC)c(N)n(Cc2ccccc2)c1=O (centres unmarked) [1.68] | 19.7 |
| CCn1c(=O)c(C(=O)CN2CCCCC2C(=O)NC(C)C)c(N)n(Cc2ccccc2)c1=O (centres unmarked) [1.70] | 27.9 |
| CCn1c(=O)c(C(=O)CN(C(C)C)C(C)C(N)=O)c(N)n(Cc2ccccc2)c1=O (centres unmarked) [1.71] | 70.4 |
| CC(C)Cn1c(=O)c(C(=O)CN2CCCCC2C(N)=O)c(N)n(Cc2ccccc2)c1=O (centres unmarked) [1.75] | 28 |

| SMILES | EC50 [µM] |
| --- | --- |
| CCN(CC(=O)c1c(N)n(Cc2ccccc2)c(=O)n(CC)c1=O)C(C(N)=O)C(C)C (centres unmarked) [1.77] | 31.2 |
| CCn1c(=O)c(C(=O)CN2CCCCC2C(=O)NC(C)(C)C)c(N)n(Cc2ccccc2)c1=O (centres unmarked) [1.79] | 49.3 |
| CCNC(=O)C1CCCCN1CC(=O)c1c(N)n(Cc2ccccc2)c(=O)n(CC)c1=O (centres unmarked) [1.80] | 3.89 |
| CCN(CC)C(=O)C1CCCCN1CC(=O)c1c(N)n(Cc2ccccc2)c(=O)n(CC)c1=O (centres unmarked) [1.81] | 3.92 |
| CCn1c(=O)c(C(=O)CN2CCCCC2C(N)=O)c(N)n(CC2CCCCC2)c1=O (centres unmarked) [1.84] | 48.2 |
| CCn1c(=O)c(C(=O)CN2CCCCC2C(=O)N2CCCC2)c(N)n(Cc2ccccc2)c1=O (centres unmarked) [1.85] | 28.1 |
| CCn1c(=O)c(C(=O)CN2CCCCC2C(=O)N(C(C)C)C(C)C)c(N)n(Cc2ccccc2)c1=O (centres unmarked) [1.88] | 53.8 |
| NC(=O)C1CCCCN1CC(=O)c1c(N)n(Cc2ccccc2F)c(=O)n(Cc2ccccc2F)c1=O (centres unmarked) [1.92] | 24.2 |
| NC(=O)C1CCCCN1CC(=O)c1c(N)n(Cc2cccc(F)c2)c(=O)n(Cc2cccc(F)c2)c1=O (centres unmarked) [1.95] | 21.1 |
| CCn1c(=O)c(C(=O)CN2CCCCC2C(=O)Nc2ccccc2)c(N)n(Cc2ccccc2)c1=O (centres unmarked) [1.97] | 62.5 |
| CCn1c(=O)c(C(=O)CN2CCCC2C(=O)N(C)C)c(N)n(Cc2ccccc2)c1=O (centres unmarked) [1.98] | 43.1 |
| CCN(CC)C(=O)C1CCCN1CC(=O)c1c(N)n(Cc2ccccc2)c(=O)n(CC)c1=O (centres unmarked) [1.99] | 28.3 |
| CC(C)N(CC(N)=O)CC(=O)c1c(N)n(Cc2cccs2)c(=O)n(Cc2cccs2)c1=O [1.100] | 16.5 |
| NC(=O)C1CCCCN1CC(=O)c1c(N)n(Cc2cccs2)c(=O)n(Cc2cccs2)c1=O (centres unmarked) [1.101] | 12.8 |
| CN(C)C(=O)C1CCCCN1CC(=O)c1c(N)n(Cc2cccs2)c(=O)n(Cc2cccs2)c1=O (centres unmarked) [1.102] | 6.2 |
| Cc1ccccc1Cn1c(N)c(C(=O)CN2CCCCC2C(N)=O)c(=O)n(Cc2ccccc2C)c1=O (centres unmarked) [1.108] | 25 |
| Cc1cccc(Cn2c(N)c(C(=O)CN3CCCCC3C(N)=O)c(=O)n(Cc3cccc(C)c3)c2=O)c1 (centres unmarked) [1.109] | 7.47 |
| COc1ccccc1Cn1c(N)c(C(=O)CN2CCCCC2C(N)=O)c(=O)n(Cc2ccccc2OC)c1=O (centres unmarked) [1.110] | 25 |
| CCn1c(=O)c(C(=O)CN(CC(N)=O)C(C)C)c(N)n(Cc2cccs2)c1=O [1.111] | 5.19 |
| Cc1ccc(Cn2c(N)c(C(=O)CN3CCCCC3C(N)=O)c(=O)n(Cc3ccc(C)cc3)c2=O)cc1 (centres unmarked) [1.114] | 18.1 |

| SMILES | EC50 [µM] |
| --- | --- |
| COc1ccc(Cn2c(N)c(C(=O)CN3CCCCC3C(N)=O)c(=O)n(Cc3ccc(OC)cc3)c2=O)cc1 (centres unmarked) [1.115] | 31.9 |
| COc1cccc(Cn2c(N)c(C(=O)CN3CCCCC3C(N)=O)c(=O)n(Cc3cccc(OC)c3)c2=O)c1 (centres unmarked) [1.116] | 23.9 |
| CCn1c(=O)c(C(=O)CN2CCCCC2C(N)=O)c(N)n(Cc2cccc(C)c2)c1=O (centres unmarked) [1.119] | 13.3 |
| CCn1c(=O)c(C(=O)CN2CCCC2C(=O)N2CCOCC2)c(N)n(Cc2ccccc2)c1=O (centres unmarked) [1.121] | 61.3 |
| CCn1c(=O)c(C(=O)CN2CCCC2C(=O)N2CCCCC2)c(N)n(Cc2ccccc2)c1=O (centres unmarked) [1.122] | 30.4 |
| CCn1c(=O)c(C(=O)CN2CCCC2C(=O)NCc2ccccc2)c(N)n(Cc2ccccc2)c1=O (centres unmarked) [1.124] | 24.1 |
| CCn1c(=O)c(C(=O)CN2CCCCC2C(N)=O)c(N)n(Cc2cccc(F)c2)c1=O (centres unmarked) [1.134] | 17.4 |
| CCn1c(=O)c(C(=O)CN2CCCCC2C(=O)NCc2ccccc2C)c(N)n(Cc2ccccc2)c1=O (centres unmarked) [1.135] | 13.5 |
| CCn1c(=O)c(C(=O)CN2CCCCC2C(=O)NCCc2ccccc2)c(N)n(Cc2ccccc2)c1=O (centres unmarked) [1.136] | 8.25 |
| CCn1c(=O)c(C(=O)CN2CCCCC2C(N)=O)c(N)n(Cc2ccccc2F)c1=O (centres unmarked) [1.137] | 5.08 |
| CCn1c(=O)c(C(=O)CN2CCCCC2C(=O)N2CCc3ccccc3C2)c(N)n(Cc2ccccc2)c1=O (centres unmarked) [1.141] | 12.9 |
| CCn1c(=O)c(C(=O)CN2CCCC[C@@H]2C(=O)NCc2ccccc2F)c(N)n(Cc2ccccc2)c1=O [1.142] | 13.1 |
| CCn1c(=O)c(C(=O)CN2CCCC[C@@H]2C(=O)N2CCc3ccccc3C2)c(N)n(Cc2ccccc2)c1=O [1.143] | 6.48 |
| CCn1c(=O)c(C(=O)CN2CCCC[C@@H]2C(=O)NCc2cccc(F)c2)c(N)n(Cc2ccccc2)c1=O [1.144] | 9.35 |
| CCn1c(=O)c(C(=O)CN2CCCCC2C(N)=O)c(N)n(Cc2ccc(F)cc2F)c1=O (centres unmarked) [1.146] | 8.5 |
| CCn1c(=O)c(C(=O)CN2CCCCC2C(N)=O)c(N)n(Cc2ccc(F)c(F)c2)c1=O (centres unmarked) [1.147] | 52.5 |
| CCn1c(=O)c(C(=O)CN(CC(N)=O)C(C)C)c(N)n(Cc2ccc(F)cc2C)c1=O [1.153] | 64.8 |
| CCn1c(=O)c(C(=O)CN2CCCCC2C(N)=O)c(N)n(Cc2ccc(F)cc2OC)c1=O (centres unmarked) [1.154] | 68.5 |
| CCn1c(=O)c(C(=O)CN2CCCC[C@@H]2C(=O)NCc2ccc(F)cc2)c(N)n(Cc2ccccc2)c1=O [1.155] | 3.16 |
